From US20020166132A1, “System for regulating in vivo the expression of a transgene by conditional inhibition” (priority 2000, published 2002) come the findings set out here.

For one assay, the system named is SeAP reporter gene. Put plainly: Circulating SeAP after intramuscular injection and electrotransfer of plasmids into tibialis cranialis muscle of SCID mice. Type of assay: in vivo. The protocol:
The 6-week-old SCID mice were first anesthetized with a Ketamine/Xylazine mixture (250 μl/mouse). The various plasmids in solution in 150 mM NaCl were then injected intramuscularly into the tibialis cranialis muscle of the mice. […] The amount of circulating SeAP was regularly monitored by taking blood samples and assaying the phosphatase activity using the Phospha-Light kit (Tropix).

Assay [1] concerns SeAP reporter gene (plasmid pRDA02). Put plainly: SeAP expression in C2C12 cells, hPPARγ2 inducible system. As to conditions: ratios of columns 3 and 4; 5 and 6; 7 and 8, FIG. 24; BRL49653 at 10^-7 M final. The format is cell-based, murine. The protocol: FIG. 24: Measurement of the expression of SeAP 5 days after transfection in C2C12 cells with the following plasmids, with and without the chemical inducer BRL49653 at 10^-7 M final:
The cells used were NIHT3T3 murine fibroblasts (ATCC: CRL-1658). These cells were seeded 24 h before transfection, in 6- or 24-well plates, at a density of 5×10^4 cells/well in 1 ml of medium, or of 2.5×10^5 cells/well in 2 ml. The culture medium used was DMEM™ medium (Life Technologies Inc.) supplemented with 10% of calf serum. The cell cultures were incubated in an incubator at 37° C. in a humid atmosphere and under a partial CO2 pressure of 5%. The transfections were carried out approximately 24 h after seeding, when 50 to 80% confluence was obtained. C2C12 cells were murine myoblast cells (ATCC: CRL1772) and were cultured on a DMEM™ medium (Life Technologies Inc.) supplemented with 10% of fetal calf serum to which L-glutamine, 2 mM final, and antibiotics, 50 units final of penicillin and 50 μg/ml of streptomycin, were added.

As for `CN1CCN(c2ccc3[nH]c(-c4ccc5[nH]c(-c6ccc(O)cc6)nc5c4)nc3c2)CC1`, the “SeAP activity with aptamer ligand” value in the assay on SeAP reporter gene (pXL3010+pSeAPaptazyme, 400 mg/l via the drinking water, Example 14) is “restored to a significant level”.

On to `CN(CCOc1ccc(CC2SC(=O)NC2=O)cc1)c1ccccn1` (stereo not drawn) [BRL fibrate, rosiglitazone], for which, in assay [1], the “inducibility of the expression of SeAP in the presence of the antisense transcript” value is listed as “a certain inducibility”.

Consider `NC[C@@H]1O[C@H](O[C@H]2[C@@H](O)[C@H](O[C@@H]3[C@@H](O)[C@H](N)C[C@H](N)[C@H]3O[C@H]3O[C@H](CN)[C@@H](O)[C@H](O)[C@H]3N)O[C@@H]2CO)[C@H](N)[C@@H](O)[C@@H]1O` [neomycin B], for which the “expression of SeAP with aptamer ligand” value in the assay with SeAP reporter gene (pXL3010+pSeAPaptamerAS, IP injection approximately 500 μg/mouse, Example 13) is “can be restored”.
